These are literature values, as cited in patent US11730619B2, “Systems and methods for determining failure of intragastric devices” (RESHAPE LIFESCIENCES INC., priority 2015, dated 2023).

Where a name gives a salt, the structure may show the parent alone. Read-outs that look alike come from different tables or passages of the source.

The conditions of series [1]: for Solubility: solvent not given.
The conditions of series [2]: Meng et al. 2013.
The conditions of series [3]: cell wraps: Generally well-tolerated in patients; Merck Index.
For series [4] the following is noted: pH 3.

With `Cc1cc2nc3c(=O)[nH]c(=O)nc-3n(C)c2cc1C` [Lumiflavine], in series [1], the “Solubility” value is “poor solubility”. In addition, in series [1] (water, Merck Index), the “Solubility in water” value is listed as “Very sparingly soluble in water”.

On to `Cc1cc2nc3[nH]c(=O)[nH]c(=O)c3nc2cc1C` [Lumichrome], for which the “Solubility in hot water” value in series [1] (hot water, Merck Index) is listed as “Sparingly soluble in hot water”. Moreover, in series [1], the “Solubility” value is recorded as “poor solubility”. For `Cc1cc2nc3c(=O)[nH]c(=O)nc-3n(C[C@H](O)[C@H](O)[C@H](O)CO)c2cc1C` [B vitamins (e.g. Riboflavin), Riboflavin], in series [1] (Merck Index), the Solubility in water result was “Solubility: 1 g in 3 L g in 3 L water”. With `CN(C)c1ccc2nc3ccc(=[N+](C)C)cc-3sc2c1` [methylene blue], the “Conversion on passage through the gastrointestinal tract” value in series [2] is recorded as “reduced to leukomethylene blue”. Consider `O=C(O)c1cc(O)c2c(c1)[C@@H]([C@H]1c3cc(C(=O)O)cc(O)c3C(=O)c3c(O[C@@H]4O[C@H](CO)[C@@H](O)[C@H](O)[C@H]4O)cccc31)c1cccc(O[C@@H]3O[C@H](CO)[C@@H](O)[C@H](O)[C@H]3O)c1C2=O` [Sennoside B], for which the “Solubility in water relative to Sennoside A” value in series [1] (cell wraps: more soluble in water than Sennoside A, Merck) was “Sennoside B is more”. On to `CN(C)c1ccc2c(c1)Sc1cc(N(C)C)ccc1N2` [Leukomethylene blue], for which, in series [2] (stabilized in the urine), the Excretion in urine result is “excreted mostly unaltered”. In the case of `COc1ccccc1OCC(O)COC(N)=O` (centres unmarked) [Methocarbamol], in series [3], the “Tolerability in patients” value is given as “Generally well-”. Moreover, the Water solubility entry in series [1] (@ 20° C., Merck Index) is on record as “Water soluble 2.5 g/100 g/100 mL”. As for `CN(C)CCC=C1c2ccccc2CCc2ccccc21` [Amitriptyline Hydrochloride], in the series on rat (rats, second of two values, Merck Index), the “LD50 (rats)” value is 380 mg/kg. For the same compound, the “Solubility in water” value in series [1] (water, Merck Index) is reported as “Salt is freely soluble in”.

Take `O=C1/C(=C2\Nc3ccc(S(=O)(=O)[O-])cc3C2=O)Nc2ccc(S(=O)(=O)[O-])cc21.[Na+].[Na+]` [Indigo carmine]: the “LD50 (rat, oral)” value in the series on rat (rat, oral, Baker MSDS sheet) was 2000 mg/kg (Baker MSDS sheet). As for `Nc1nc(N)c2nc(-c3ccccc3)c(N)nc2n1` [Triamterene], in series [3], the “Tolerability in patients” value is recorded as “Generally well-”. Moreover, the “Solubility: parts water in which 1 part is soluble” value in series [1] (1 part soluble in 1000 parts water, Merck Index) is recorded as 1 part soluble in 1000 parts water. Take Betalain [Betalain (including betanin)]: in series [4], the “pH range of stability” value is recorded as “Stable between pH 3”.

On to `O=C(O)c1cc(O)c2c(c1)[C@H]([C@H]1c3cc(C(=O)O)cc(O)c3C(=O)c3c(O[C@@H]4O[C@H](CO)[C@@H](O)[C@H](O)[C@H]4O)cccc31)c1cccc(O[C@@H]3O[C@H](CO)[C@@H](O)[C@H](O)[C@H]3O)c1C2=O` [Sennoside A], for which the “Solubility in water” value in series [1] (water, Merck Index) is given as “insoluble in water”.
